Patent US20200383327A1, “METHOD OF IMPROVING PLANT PERFORMANCE” (The State of Israel, Ministry of Agriculture & Rural …, priority 2018, published 2020)

Tests used:
Assay type in all cases: in vivo
Oidium neolycopersici = assay: Oidium powdery mildew on tomato plants; conditions: 24 days after treatment
Description: The Phe (P) solution was applied by spraying and by drench on the tomato plants at 3 days before and 4 hours before incubation in the greenhouse. Incidence of Oidium powdery mildew was evaluated 24 days after treatment. […] The Phe and shatakh 90 solutions were applied by spraying on the tomato plants at 3 days before and 4 hours before incubation in the greenhouse. Incidence of Oidium powdery mildew was evaluated 24 days after treatment.
Conidia of Oidium neolycopersici were collected from leaves of a diseased plant, suspended in water and sprayed on the tomato plants. The plants were kept in a greenhouse with 18-28° C. Disease severity of Oidium powdery mildew was evaluated on a scale of 0-100% where 100=whole canopy covered by disease symptoms.

[1] = tested on: Tomato yellow leaf curl virus (TYLCV); assay: Tomato yellow leaf curl virus severity on tomato plants; conditions: 4 mM Phe solution, spray and drench to root zone; AUDPC during 51 days; FIG. 13
Description: FIG. 13 is a bar graph showing the effect of 4 mM solution on the severity of Tomato yellow leaf curl virus (TYLCV) on leaves of tomato plants. The Phe solution was applied by spraying and by drench on the tomato plants at 3 days before and 4 hours before incubation in the greenhouse close to TYLCV infected tomato plants. Infection was natural by the vector insect silverleaf white fly. Disease severity was evaluated on a scale of 0-100% severity of symptoms coverage during 51 days after treatment and it is expressed as the area under disease progress curve (AUDPC).
The effect of Phe on TYLCV Begomovirus on tomato plants was assessed. Tomato yellow leaf curl virus (TYLCV) is a DNA virus from the genus Begomovirus. The virus is transmitted by an insect vector the whitefly Bemisia tabaci, (silverleaf whitefly; sweet potato whitefly from the family Aleyrodidae). Plants infected are tomato and also eggplant, potato, tobacco, bean, and pepper. Virus infection causes stunting, reduction of leaf size, upward cupping/curling of leaves, chlorosis on leaves and flowers, and reduction of fruit production.

Penicillium digitatum = assay: Postharvest decay of 'Michal' clementine fruit sprayed with conidia; conditions: 4 mM phenylalanine, FIG. 6
Description: FIGS. 6A-6C are graphs and a photograph showing induced resistance of harvested clementine fruit to fungal pathogens. FIG. 6A is a vertical bar showing the % of decayed Clementine fruit (in a box) of the cultivar ‘Michal’ which were dipped for 30 seconds in 4 mM phenylalanine. After the fruits were dried, they were sprayed with conidia suspension of Penicillium digitatum (early infection), or alternatively the fruit was sprayed with conidia suspension two days after being dipped in phenylalanine (late infection). FIG. 6B is representative pictures of inoculated fruits of control and treatment with 4 mM phenylalanine, 5 days post inoculation. FIG. 6C is diagrams of taste evaluation of control fruit (upper panel) and phenylalanine treated fruit (lower panel) which include off-flavors (index 1-5), acidity (index 1-5), sweetness (index 1-5), and general taste (index 1-5).

[2] = Mango fruit decay in cold storage after post-harvest treatment
Description: (§1) FIGS. 19A-19G are images and graphs showing the effect of Phe solution on fruit post-harvest rotting under cold temperature resistance. (19A-19B) are images showing post-harvest control and treated mango fruits, respectively, stored in 7° C. […] (19C-19D) are vertical bar graphs showing indices of spots (19C) and pitting (19D) of mango fruits infected by Colletotrichum or Lasiodiplodia under 7° C. (19E-19G) are vertical bar graph showing […] decay was shown at 7° C., and side decay and total decay were shown at 7° C. and 10° C.
(§2) Mango fruits were treated with Phe solution post-harvest. Fruits were stored in either 7° C. or 10° C., and decay was inspected and documented. Post-harvest treatment as described hereinabove reduced stem decay, side decay, and total decay (FIGS. 19E-19G). […] Fruits were both treated with AAA and infested with […] post-harvest. […] (FIGS. 19C-19D).

Colletotrichum = assay: Spots and pitting of infected mango fruits under 7° C.; conditions: post-harvest treated and infested mango
Description: as §1, §2

Lasiodiplodia = assay: as above; conditions: post-harvest treated and infested mango
Description: as §1, §2

[3] = Plant growth performance parameters after pre-harvest treatment
Description: FIGS. 20A-20I are images and graphs showing the effects of Phe solution on plant growth performance parameters. (20A) is images of plants treated with 2 mM once or twice, once with 4 mM or non-treated (control). (20B-20C) are bar graphs showing plant height (20B) and the % increase in the plant height (20C) in treated and control plants. (20D-20E) are bar graphs showing the number of nodes per plant (20D) and the % increase in the number of nodes (20E) in treated and control plants. (20F-20G) are bar graphs showing the % increase in leaf length (20F) and the % increase in the leaf area (20G) in treated and control plants. (20H-20I) are bar graphs showing plant fresh (e.g., “wet”) weight […] and plant dry weight (20I) in treated and control plants.
Plant were treated with Phe solution pre-harvest, and growth performance parameters, including total height, total weight (“wet” and dry), number of nodes, leaf length, and leaf area were examined.

[4] = Plant crop production (fruits)
Description: FIGS. 21A-21D are bar graphs showing the effects of 1-4 mM solution on plant crop production (e.g., fruits). Plants were treated with 2 mM once or twice, once with 4 mM or non-treated (control). (21A) is a graph showing the cumulative weight of fruits per plant. (21B) is a graph showing the number of fruits per plant. (21C) is a graph showing the average weight of a fruit. (21D) is a graph showing the number of young fruits, e.g., “set fruit”.

Q: Which results are given for N[C@@H](Cc1ccccc1)C(=O)O [Phe, Phenylalanine]?
A: Severity of Oidium powdery mildew on tomato leaves (Oidium neolycopersici; 4 mM Phe solution, drench or spray, each treatment, FIG. 11A): significantly suppressed; Severity of Oidium powdery mildew on tomato leaves (Oidium neolycopersici; spray, 4 mM Phe, 0.1% Shatah 90, or combination, FIG. 11B): significantly suppressed; Severity of Tomato yellow leaf curl virus on tomato plants canopy [1]: significantly suppressed; Decay severity in comparison to the untreated control fruits (Penicillium digitatum): reduced the decay severity; Stem decay ([2]; post-harvest Phe solution, mango stored at 7° C. or 10° C., FIG. 19E): reduced; Side decay ([2]; post-harvest Phe solution, mango stored at 7° C. or 10° C., FIG. 19F): reduced; Total decay ([2]; post-harvest Phe solution, mango stored at 7° C. or 10° C., FIG. 19G): reduced; Black spots on fruits, control versus treated ([2]; post-harvest mango fruits stored in 7° C., FIGS. 19A-19B): Control fruits were shown to have substantially more black spots; Levels of black spots (Colletotrichum; FIG. 19C): substantially reduced levels; Levels of pitting (Colletotrichum; FIG. 19D): substantially reduced levels; Levels of black spots (Lasiodiplodia; FIG. 19C): substantially reduced levels; Levels of pitting (Lasiodiplodia; FIG. 19D): substantially reduced levels; Plant height ([3]; 2 mM or 4 mM of Phe vs control, FIGS. 20A-20C): significantly higher than control; Final weight at harvest, total "wet" weight ([3]; Phe treated vs control, FIG. 20H): significantly greater than control; Final weight at harvest, total dry biomass ([3]; Phe treated vs control, FIG. 20I): significantly greater than control; Number of nodes on the plant's stem ([3]; Phe treated vs control, FIGS. 20D-20E): increase in height was also correlated with the number of nodes; Leaf length ([3]; control compared to plants treated with 4 mM Phe): control plants had significantly shorter leaves; Leaf area ([3]; control compared to plants treated with Phe, 2 mM or 4 mM once a week): reduced leaf area compared to those of plants treated with Phe; Number of young fruits (set fruit) ([4]; 4 mM-treated plants vs control, FIG. 21D): greater number of young fruits; Total crop yielded (fruits) ([4]; Phe solution vs control): significantly increased the total crop yielded; Cumulative fruit weight ([4]; Phe treated vs control): significantly greater cumulative fruit weight; Number of fruits ([4]; Phe treated vs control): comparable amount; Average weight per fruit ([4]; Phe treated vs control, FIG. 21C): significantly greater average weight per fruit
